Laboratory results taken from EPA's ToxValDB 9.5.
Several values for one entry are separate records, joined by “and”; a condition that tells them apart may be missing. Equal values may be shown once.

Test system: Rattus norvegicus
Settings: inhalation; for LEL / NEL: Crl:CD(SD) BR
[1] = chronic, duration: 2 years, M, Kidney: Urobilinogen, Urine
[2] = reproduction developmental, duration: 9 days, F, Crl: CD BR, generation: P0, P0: General Toxicity: Whole Body: Maternal Body Weight Change + P0: General Toxicity: Whole Body: Mortality + P0: Nervous: Whole Body: …
[3] = reproduction developmental, duration: 9 days, F, Crl:CD BR, generation: P0, P0: Developmental: Uterus: Implantation + P0: Developmental: Uterus: Post-Implantation Loss + P0: Developmental: Uterus: Pre-Implantation …
[4] = reproduction developmental, duration: 9 days, F, Crl:CD BR, generation: P0, P0: Developmental: Uterus: Post-Implantation Loss + P0: Developmental: Uterus: Resorptions, Mean/Litter + P0: General Toxicity: Whole Body: …
[5] = reproduction developmental, duration: 9 days, F, generation: P0, P0: Ovary: Corpora Lutea
[6] = reproduction developmental, duration: 9 days, F, generation: P0, P0: Whole Body: Clinical Observations + P0: Whole Body: Maternal Body Weight Change
[7] = reproduction developmental, duration: 9 days, F, generation: P0, P0: Whole Body: Lethargic
[8] = subchronic, duration: 90 days, F, Crl:CD BR, General Toxicity: Whole Body: Body Weight Change + General Toxicity: Whole Body: Clinical Observations + Hepatic: Liver: Alkaline …
[9] = subchronic, duration: 90 days, F, Crl:CD BR, Nervous: Brain: Brain Weight, Absolute + Nervous: Brain: Brain Weight, Relative + Whole Body: Whole Body: Functional Observation Battery (…
[10] = subchronic, duration: 90 days, F, Liver: Alkaline Phosphatase (ALP), Blood
[11] = subchronic, duration: 90 days, M, Crl:CD BR, General Toxicity: Whole Body: Body Weight Change + General Toxicity: Whole Body: Clinical Observations + Hepatic: Liver: Liver Weight, …
[12] = subchronic, duration: 90 days, M, Crl:CD BR, Nervous: Brain: Brain Weight, Absolute + Nervous: Brain: Brain Weight, Relative + Whole Body: Whole Body: Functional Observation Battery (…
[13] = subchronic, duration: 90 days, M, Blood: Triglycerides (TRIG), Blood + Whole Body: Function Observation Battery (FOB)

With FC(Cl)C(F)(F)F (stereo not drawn) [2-Chloro-1,1,1,2-tetrafluoroethane] the LEL [1] was 279000 mg/m3, the NEL [1] was 55800 mg/m3 and the LEL (chronic, duration: 2 years, M, Liver: Liver Weight, Absolute + Spleen: Spleen Weight, Absolute) was 11200 mg/m3. For the same compound, the LOAEL (developmental, duration: 9 days, M/F, Crl: CD BR, generation: F1, F1: Developmental: Uterus: Dead Fetuses + F1: Developmental: Uterus: Fetuses, Live + F1: General Toxicity: Whole Body: Body Weight, Fetal) was 279000 mg/m3, the NOAEL (developmental, duration: 9 days, M/F, Crl:CD BR, generation: F1, F1: Developmental: Head: Head Abnormalities + F1: Developmental: Whole Body: External Abnormalities + F1: Developmental: Whole Body: Live …) was 27900 mg/m3 and 83700 mg/m3 and the NEL (developmental, duration: 9 days, M/F, generation: F1, F1: Head: Head Abnormalities + F1: Whole Body: External Abnormalities + F1: Whole Body: Live Pups Born + F1: Whole Body: Skeletal …) was 279000 mg/m3. For the same compound, the LEL (developmental, duration: 9 days, M/F, generation: F1, F1: Whole Body: Pup Weight Relative to Litter) was 27900 mg/m3, the LOAEL (reproduction developmental, duration: 9 days, F, Crl: CD BR, generation: P0, P0: Developmental: Uterus: Implantation + P0: Developmental: Uterus: Resorptions, Early + P0: Developmental: Uterus: Resorptions, Total + P0…) was 279000 mg/m3 and the LOAEL [2] was 279000 mg/m3. The NOAEL [2] was 55800 mg/m3, the LOAEL [3] was 83700 mg/m3 and the NOAEL [3] was 27900 mg/m3. The NOAEL (reproduction developmental, duration: 9 days, F, Crl:CD BR, generation: P0, P0: Developmental: Uterus: Implantation + P0: Developmental: Uterus: Pre-Implantation Loss + P0: Reproductive: Ovary: Corpora Lutea) was 279000 mg/m3, the LOAEL [4] was 279000 mg/m3 and the NOAEL [4] was 83700 mg/m3. The LEL [5] was 83700 mg/m3, the NEL [5] was 27900 mg/m3 and the LEL (reproduction developmental, duration: 9 days, F, generation: P0, P0: Uterus: Implantation) was 27900 mg/m3. The NEL (reproduction developmental, duration: 9 days, F, generation: P0, P0: Uterus: Implantation + P0: Uterus: Resorptions, Early + P0: Uterus: Resorptions, Total + P0: Whole Body: Maternal Body Weight Change + …) was 279000 mg/m3, the NEL (reproduction developmental, duration: 9 days, F, generation: P0, P0: Uterus: Post-Implantation Loss + P0: Uterus: Pre-Implantation Loss + P0: Uterus: Resorptions, Mean/Litter + P0: Whole Body: Delivered …) was 279000 mg/m3 and the LEL [6] was 279000 mg/m3. The NEL [6] was 83700 mg/m3, the LEL [7] was 279000 mg/m3 and the NEL [7] was 55800 mg/m3. It also gave an NEL (reproduction developmental, duration: 9 days, M/F, generation: P0, P0: Uterus: Fetuses, Dead + P0: Uterus: Fetuses, Live + P0: Whole Body: Body Weight, Fetal) of 279000 mg/m3, an NEL (short-term, duration: 4 weeks, F, Adrenal: Adrenal Gland Weight, Absolute + Adrenal: Adrenal Gland Weight, Relative + Bladder: Urinary Bladder Calculus + Bladder: Urinary …) of 279000 mg/m3 and an NEL (short-term, duration: 4 weeks, M, Adrenal: Adrenal Gland Weight, Absolute + Adrenal: Adrenal Gland Weight, Relative + Blood: Abnormal Lymphocytes + Blood: Band Neutrophils + …) of 279000 mg/m3. It also gave an LOAEL (subchronic, duration: 90 days, F, Crl:CD BR, Cardiovascular: Heart: Heart Weight, Absolute + Cardiovascular: Heart: Heart Weight, Relative + Endocrine: Adrenal: Adrenal Gland Weight, …) of 83700 mg/m3, an LOAEL [8] of 279000 mg/m3 and an NOAEL [8] of 83700 mg/m3. The LOAEL [9] was 83700 mg/m3, the NOAEL [9] was 27900 mg/m3 and the NEL (subchronic, duration: 90 days, F, Adrenal: Adrenal Gland Weight, Absolute + Adrenal: Adrenal Gland Weight, Relative + Blood: Hematology, Unspecified + Brain: Brain Weight, …) was 279000 mg/m3. The LEL [10] was 279000 mg/m3, the NEL [10] was 83700 mg/m3 and the LOAEL (subchronic, duration: 90 days, M, Crl:CD BR, Cardiovascular: Heart: Heart Weight, Absolute + Cardiovascular: Heart: Heart Weight, Relative + Endocrine: Adrenal: Adrenal Gland Weight, …) was 83700 mg/m3. The LOAEL [11] was 279000 mg/m3, the NOAEL [11] was 83700 mg/m3 and the LOAEL [12] was 83700 mg/m3. The NOAEL [12] was 27900 mg/m3, the NEL (subchronic, duration: 90 days, M, Adrenal: Adrenal Gland Weight, Absolute + Adrenal: Adrenal Gland Weight, Relative + Blood: Hematology, Unspecified + Brain: Brain Weight, …) was 279000 mg/m3 and the LEL [13] was 83700 mg/m3. It also gave an NEL [13] of 27900 mg/m3.
